Assay [1] relates to LPS-induced TNF-α production in RAW264.7 murine macrophage cells. The experiment in a line: Suppression of LPS-induced TNF-α production in RAW264.7 macrophages (ELISA). It counts as cell-based. The conditions noted are these: Mus musculus. The text has this: Macrophages serve a critical role in the initiation and propagation of inflammatory responses by releasing proinflammatory mediators, such as TNF-α. Lipopolysaccharide (LPS) is a potent initiator of an inflammatory response. During LPS stimulation, NF-κB signaling is activated to regulate the transcription of numerous genes involved in immunity and inflammation to produce proinflammatory cytokines, such as TNF-α. Suppression of LPS-induced TNF-α production in RAW264.7 macrophages treated with AABZ was investigated by evaluation of the generation of TNF-α.
The RAW264.7 macrophage line was maintained in DMEM supplemented with 5% FBS at 37° C. in a 5% CO2-humidified air environment. The RAW264.7 cells were seeded in 96-well plates at a density of 1×10^5/ml and a volume of 200 μl/well. The cells were incubated for 24 h in medium supplemented with 10% FBS and were then pre-incubated with or without the indicated concentrations of test substances for 2 h prior to the addition of LPS (1 μg/ml). The supernatants were subsequently harvested at various time points and production of the proinflammatory cytokine TNF-α in the culture medium was determined using a commercially available enzyme-linked immunosorbent assay (ELISA) kit according to the manufacturer's protocol.
Effects of some AABZs of the invention at 1 mM on LPS-induced TNF-production in RAW264.7 murine macrophage cells are shown in Table 2.

In the next assay the target is dopamine D2 receptor (Homo sapiens (Human), UniProt P14416). The experiment in a line: Dopamine D2 receptor affinity, in vitro radioligand binding with 125I-spiperone. As to conditions: 125I-spiperone as radioactive ligand. An excerpt: It is well-known that drug compounds that have an affinity for the striatal dopamine D2 may give rise to adverse side effects, such as short-term extrapyramidal disorders and tardive dyskinesia.

The next assay concerns NF-κB. As to conditions: T cells; cited from earlier work.
In another assay the test system is NFAT. The conditions noted are these: T cells; cited from earlier work.
In the next assay the test system is AP-1. The conditions noted are these: T cells; cited from earlier work.
The next assay deals with IκBβ. The conditions noted are these: cited from earlier work.
[2] abbreviates: RAW264.7, read-out: % Inhibition of TNF-production.

pIC50: −log10 of the molar value. Where a name gives a salt, the structure may show the parent alone. Read-outs that look alike come from different tables or passages of the source.

dopamine D2 receptor, sequence (P14416 whole entry, species assumed): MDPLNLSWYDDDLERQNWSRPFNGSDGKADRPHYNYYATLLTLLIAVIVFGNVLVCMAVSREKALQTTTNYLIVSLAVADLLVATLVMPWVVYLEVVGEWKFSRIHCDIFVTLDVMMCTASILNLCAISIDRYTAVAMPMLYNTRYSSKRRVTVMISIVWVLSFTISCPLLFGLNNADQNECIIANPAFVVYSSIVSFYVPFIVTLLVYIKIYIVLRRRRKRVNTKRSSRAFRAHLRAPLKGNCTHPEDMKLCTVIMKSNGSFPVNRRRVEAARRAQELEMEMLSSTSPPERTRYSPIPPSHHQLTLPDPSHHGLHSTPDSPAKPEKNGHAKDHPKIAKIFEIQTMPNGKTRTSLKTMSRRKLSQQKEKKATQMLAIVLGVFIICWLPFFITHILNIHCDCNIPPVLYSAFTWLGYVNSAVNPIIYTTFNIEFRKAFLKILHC

Turning to `CCN(CC)CCNC(=O)c1ccc(NC(C)=O)cc1` [4-Acetamido-N-[2-(diethylamino)ethyl]benzamide hydrochloride], the inhibition (commonly how much of the control response was suppressed) at 1000 µM in assay [1] (1 mM, LPS 1 μg/ml, RAW264.7 murine macrophage cells, read-out: % Inhibition of TNF-production) stood at 56%.

As to `CCN(CC)CCNC(=O)c1ccc(NC(=O)C(C)C)c(Cl)c1` [4-Isobutyrylamino-3-chloro-N-[2-(diethylamino)ethyl]benzamide hydrochloride], in assay [1] (setting [2]), the inhibition at 1000 µM was determined as 63%.

`CCC(=O)Nc1ccc(C(=O)NCCN(CC)CC)cc1Cl` [4-Propanoylamino-3-chloro-N-[2-(diethylamino)ethyl]benzamide hydrochloride]: the inhibition at 1000 µM in assay [1] (setting [2]) amounted to 50%.

For `CCN(CC)CCNC(=O)c1ccc(NC(C)=O)c(Cl)c1` [Cpd A, 4-Acetamido-3-chloro-N-[2-(diethylamino)ethyl]benzamide hydrochloride], the inhibition at 1000 µM in assay [1] (setting [2]) stood at 45%. Also, the pIC50 (commonly the IC50 on a negative log10 scale, so that one unit is a factor of ten) on dopamine D2 receptor was 3.01. Further, the “effect on NF-κB activity” value in the assay on NF-κB is reported as “inhibit activities”. Moreover, in the assay with NFAT, the “effect on NFAT activity” value is reported as “inhibit activities”. Also, the “effect on AP-1 activity” value with AP-1 is listed as “induce AP-1 activity”. In addition, the “effect on breakdown of IκBβ” value with IκBβ was “inhibit breakdown”.

Take `CCN(CC)CCNC(=O)c1ccc(N)c(Cl)c1` [Declopramide, declopramide]: at dopamine D2 receptor, the pIC50 is 4.41.
